Test results: paper PMC9382192, “Combined treatment with epigenetic agents enhances anti-tumor activity of MAGE-D4 peptide-specific T cells by upregulating the MAGE-D4 expression in glioma” (Frontiers in Oncology, 2022)

Columns and labels:
HLA-A2 [1] = experiment: HLA-A2 expression in U251; format: cell-based, human; settings: DAC 1 μM 120 h, TSA 1 μM 24 h
Method: The human glioma cell lines (U87-MG and U251) were obtained from the Cell Bank of Type Culture Collection of the Chinese Academy of Science (Shanghai, China). […] A3656), valproic acid (VPA, CAS No. 99-66-1), and trichostatin A (TSA, CAS No. 58880-19-6) were purchased from Sigma-Aldrich Corporation (St. Louis, MO, USA). DAC and TSA were dissolved in DMSO to a concentration of 10 mM. Aliquots were stored at -80°C and diluted with media before being used. Drug treatments were divided into seven groups: (1) DAC group: cells were cultured in medium on the presence of 1 μM DAC for 120 h; (2) VPA group: cells were grown in medium containing 1 mM VPA for 120 h; (3) TSA group: cells were cultured in medium supplemented with 1 μM TSA for 24 h; (4) D + V group: cells were cultured with 1 μM DAC and 1 mM VPA for 120 h; (5) D + T group: cells were cultured with 1 μM DAC for 120 h, followed by 1 μM TSA for 24 h; (6) Control group: cells were cultured with 0.09% DMSO, which is the highest concentration of DMSO used in this study in consideration of the potential toxicity of DMSO to living cells. […] The cells were then harvested, washed with PBS buffer three times, and analyzed by a FACScan flow cytometer (BD Biosciences, Franklin Lakes, NJ, USA) using BD AccuriTM C6 Software (BD Biosciences).

MAGE-D4 promoter [2] = experiment: Pyrosequencing of MAGE-D4 promoter in U251; format: cell-based, human; settings: U251, compared with control group
Method: The human glioma cell lines (U87-MG and U251) were obtained from the Cell Bank of Type Culture Collection of the Chinese Academy of Science (Shanghai, China). […] A3656), valproic acid (VPA, CAS No. 99-66-1), and trichostatin A (TSA, CAS No. 58880-19-6) were purchased from Sigma-Aldrich Corporation (St. Louis, MO, USA). DAC and TSA were dissolved in DMSO to a concentration of 10 mM. Aliquots were stored at -80°C and diluted with media before being used. Drug treatments were divided into seven groups: (1) DAC group: cells were cultured in medium on the presence of 1 μM DAC for 120 h; (2) VPA group: cells were grown in medium containing 1 mM VPA for 120 h; (3) TSA group: cells were cultured in medium supplemented with 1 μM TSA for 24 h; (4) D + V group: cells were cultured with 1 μM DAC and 1 mM VPA for 120 h; (5) D + T group: cells were cultured with 1 μM DAC for 120 h, followed by 1 μM TSA for 24 h; (6) Control group: cells were cultured with 0.09% DMSO, which is the highest concentration of DMSO used in this study in consideration of the potential toxicity of DMSO to living cells. Human recombinant interleukin (IL) IL-2, IL-4, and human recombinant granulocyte/macrophage colony-stimulating factor (GM-CSF) were purchased from R&D Systems. Genomic DNA was isolated from cells using a DNA Isolation Kit (Vazyme, China). The methylation status of the MAGE-D4 promoter in cells was quantified by the PyroMark Q96 ID pyrosequencing platform (Qiagen), which was performed by Shanghai […] Biotech Co., Ltd. The methylation status of each site was analyzed automatically by the accompanying software Pyro Q-CpG (Qiagen). Two regions in the core promoter were detected, which contained 18 CpG sites. Primers used in pyrosequencing were as follows: region 1: [NT] (forward) and [NT] (reverse); region 2: [NT] (forward) and [NT] (reverse). Sequences of the MAGE-D4 promoter and pyrosequencing regions containing CpG sites are listed in Supplemental Materials.

MAGE-D4 promoter [3] = experiment: Pyrosequencing of MAGE-D4 promoter in U87; format: cell-based, human; settings: U87, compared with control group
Method: The human glioma cell lines (U87-MG and U251) were obtained from the Cell Bank of Type Culture Collection of the Chinese Academy of Science (Shanghai, China). […] A3656), valproic acid (VPA, CAS No. 99-66-1), and trichostatin A (TSA, CAS No. 58880-19-6) were purchased from Sigma-Aldrich Corporation (St. Louis, MO, USA). DAC and TSA were dissolved in DMSO to a concentration of 10 mM. Aliquots were stored at -80°C and diluted with media before being used. […] The methylation status of the MAGE-D4 promoter in cells was quantified by the PyroMark Q96 ID pyrosequencing platform (Qiagen), which was performed by Shanghai […] Biotech Co., Ltd. The methylation status of each site was analyzed automatically by the accompanying software Pyro Q-CpG (Qiagen). Two regions in the core promoter were detected, which contained 18 CpG sites. […]

autologous T cells = settings: T cells with peptide-pulsed autologous DCs 10:1, 72 h; versus DCs without peptide
Method: PBMCs were isolated from the peripheral blood samples of 8 HLA-A2^+ healthy donors, with University Ethics Review Committee-approved, written consent. The effector T lymphocytes and DCs were prepared by our published method ([31]). CD8^+ T cells were isolated from PBMCs using CD8^+ negative selection MicroBeads EasySep™ Human CD8^+ T Cell Isolation Kit (17953, stemcell) according to the manufacturers.
For T-cell stimulation, T cells were cultured with RPMI1640 complete medium containing IL-2 (20 ng/ml) mixed with peptide-pulsed autologous DCs at a ratio of 10:1 and co-cultured for 72 h. The supernatant of DCs and T cells co-cultured for 72h was used to detect IL-2 and γ-IFN. The capacity of peptide-pulsed DCs to stimulate the proliferation of autologous T cells was evaluated using a Cell Counting Kit-8 (CCK-8, Beiltime Biotec, China), as described using our published method ([31]). CCK-8 solution (20 μl/well) was added in 2 h before the end of culture. Then, the optical density (OD) was measured by microplate tester. The stimulation index (SI) is calculated according to the following formula: SI = (experiment well OD value − background OD value)/(blank control well OD value − background OD value).

IL-2 = IL-2 ELISA of DC/T-cell co-culture supernatant; format: cell-based, human; settings: 72 h co-culture supernatant, versus negative control peptide
Method: Production of cytokines in the supernatants was determined using commercially available ELISA kits (Cloud-Clone Corporation, Wuhan, China) according to the protocol of the manufacturer. Approximately 50 μl of supernatant and different concentration standards were added and mixed with 100 μl of horseradish peroxidase (HRP) labeled detection antibody against a 96-well plate, respectively, except for the blank control. After incubation at 37°C for 60 min, we washed the plate five times. Add substrate A and substrate B 50 μl respectively, incubate for 15min in a 37°C incubator in dark. Then, 50 μl of stop solution was added and a 450 nm absorbance value (OD value) was measured within 15 min. The regression equation of the standard curve is calculated according to the concentration of the standard substance and the OD value, and the corresponding sample concentration is calculated on the basis of the regression equation.

peptide/HLA-A2 complex = peptide/HLA-A2 complex (Homo sapiens, UniProt P04439, D140Y/D185E/D98H/E176V/E277Q/G131W/G231S/I119V/I121R/I166T/I218V/L300P/L318F/N151K/N90K/P208A/P217A/Q86G/Q94H/R138H/R169H/T345S); experiment: Peptide/HLA-A2 complex stability assay on T2 cells; format: binding; settings: 50 μM peptide + β2 microglobulin 2.5 μg/ml, 18 h 37°C, brefeldin A 1 h, read at 0, 2, 4, 6 h, flow cytometry
Method: T2 cells were collected and placed in 24-well plates (1 × 10^6/ml), 1 ml in each well. Predictive peptides (50 μM) and β2 microglobulin (2.5 μg/ml) were added, respectively. […] After the incubation, T2 cells were washed twice with cold PBS to clear the unbound peptide, then brefeldin A (10 μg/m) was added and incubated for 1 h. Then, cells were washed and incubated at 37°C for 0, 2, 4, and 6 h; FITC-labeled mouse anti-human HLA-A2 monoclonal antibody was added and incubated at 4°C for 30 min under dark conditions. The MFI of cells was detected by flow cytometry after washing twice. The results are expressed as dissociation complex 50 (DC50), meaning the time required for the loss of 50% of the stabilized peptide/complex.

U251 = experiment: LDH cytotoxicity assay and HLA block, U251; format: cell-based, human; settings: DAC + TSA-treated U251, E:T 50:1, 4 h
Method: The human glioma cell lines (U87-MG and U251) were obtained from the Cell Bank of Type Culture Collection of the Chinese Academy of Science (Shanghai, China). Decitabine (DAC, CAS No. A3656), valproic acid (VPA, CAS No. 99-66-1), and trichostatin A (TSA, CAS No. 58880-19-6) were purchased from Sigma-Aldrich Corporation (St. Louis, MO, USA). DAC and TSA were dissolved in DMSO to a concentration of 10 mM. Aliquots were stored at −80°C and diluted with media before being used. Drug treatments were divided into seven groups: (1) DAC group: cells were cultured in medium on the presence of 1 μM DAC for 120 h; (2) VPA group: cells were grown in medium containing 1 mM VPA for 120 h; (3) TSA group: cells were cultured in medium supplemented with 1 μM TSA for 24 h; (4) D + V group: cells were cultured with 1 μM DAC and 1 mM VPA for 120 h; (5) D + T group: cells were cultured with 1 μM DAC for 120 h, followed by 1 μM TSA for 24 h; (6) Control group: cells were cultured with 0.09% DMSO, which is the highest concentration of DMSO used in this study in consideration of the potential toxicity of DMSO to living cells. Human recombinant interleukin (IL) IL-2, IL-4, and human recombinant granulocyte/macrophage colony-stimulating factor (GM-CSF) were purchased from R&D Systems.
The cytotoxic activity of MAGE-D4 peptide-specific CTLs to glioma cells was determined according to the instructions of the manufacturers by our published method ([31]). […] Four hours later, suspended cells were collected for CD107a flow cytometry, meanwhile, the supernatant was collected and analyzed with granzyme A and perforin ELISA kit (Cloud-Clone Corporation, Wuhan, China) at 450 nm, and the LDH kit (Promega, USA) at 490 nm. The percentage of specific lysis was calculated using the following formula: [(experimental release − spontaneous release)/(maximum release − spontaneous release)] × 100. […] Then, the cytotoxicity assay was measured and calculated as mentioned above.

HLA-A2 [4] = experiment: Peptide binding assay on T2 cells; set-up: species or system human; settings: 50 µg/ml peptide, 37°C 18 h, FITC anti-HLA-A2 (BB7.2), flow cytometry, FI = (MFI peptide − MFI background)/MFI background
Method: Peptide binding affinity to HLA-A2 was assessed using T2 cells, a cell line that expresses HLA-A2 molecules but is deficient in antigen presentation. […] After incubation, the cells were washed in Phosphate buffered saline (PBS) and further incubated with FITC-conjugated anti-HLA-A2 antibody (BB7.2; BD Biosciences) at 4°C for 45 min. The cells were then washed and re-suspended with 300 µl of PBS and subjected to flow cytometer analysis (FACS Calibur, BD Biosciences). The fluorescence index (FI) was calculated as follows: FI = mean fluorescence intensity (MFI) with the given peptide − MFI without peptide/MFI without peptide.

Compound: Nc1ncn([C@H]2C[C@H](O)[C@@H](CO)O2)c(=O)n1 [DAC, Decitabine]
- HLA-A2 levels (HLA-A2 [1]): elevated HLA-A2 levels with statistical significance
- methylation level of MAGE-D4 promoter region 1 (MAGE-D4 promoter [2]): decreased significantly
- methylation level of MAGE-D4 promoter region 1 (MAGE-D4 promoter [3]): decreased significantly

Compound: CCCC(CCC)C(=O)O [VPA, valproic acid]
- methylation level of MAGE-D4 promoter region 1 (MAGE-D4 promoter [2]): decreased significantly
- methylation level of MAGE-D4 promoter region 2 (MAGE-D4 promoter [2]): decreased significantly
- total methylation levels of regions 1 and 2 of MAGE-D4 core promoter (MAGE-D4 promoter [2]): decreased significantly
- methylation level of MAGE-D4 promoter region 1 (MAGE-D4 promoter [3]): decreased significantly

Compound: ALQLDPETL [Peptide P5]
- stimulation index (SI), T-cell proliferation, CCK8 (autologous T cells): can induce T-cell proliferation
- IL-2 secreted by DC-stimulated T cells (IL-2): higher IL-2

Compound: ILSNEPWEL [Peptide P4]
- DC50 (time required for 50% dissociation of the HLA-A*0201/peptide complex) (peptide/HLA-A2 complex): >2 h
- stimulation index (SI), T-cell proliferation, CCK8 (autologous T cells): can induce T-cell proliferation
- cytotoxicity of peptide-specific T cells (specific lysis, LDH) (U251): cytotoxicity on the DAC + TSA-treated U251 cells with statistical significance

Compound: SLGPGLRIL [Peptide P3]
- FI (fluorescence index, HLA-A*0201 binding affinity) (HLA-A2 [4]): 0.887

Compound: SVQSESYSV [Peptide P1]
- FI (fluorescence index, HLA-A*0201 binding affinity) (HLA-A2 [4]): 0.007

Compound: TLTSFDIHI [Peptide P2]
- FI (fluorescence index, HLA-A*0201 binding affinity) (HLA-A2 [4]): 0.877

Compound: VLCLPPRNV [Peptide P7]
- DC50 (time required for 50% dissociation of the HLA-A*0201/peptide complex) (peptide/HLA-A2 complex): <2 h
